Values after ≈ are worked out from the molar mass of the structure shown. Like-named read-outs stand apart in the source and are kept apart here.
Columns and labels:
[1] = system: Rhizoctonia solani (Rs); experiment: Growth inhibition assay of fungal pathogens, Rs; type: cell-based; settings: 48 h
[2] = target: human (hACC2) (Homo sapiens, UniProt O00763); experiment: In vitro ACC inhibition assay (ADP-Glo), hACC2; type: biochemical; settings: 5 nM ACC2, 20 μM ATP, 20 μM acetyl-CoA
Experimental: The detailed procedure is as follows. […] 10 μL ADP glo reagent was added. […] 20 μL kinase detection reagent was added.

[3] = mycelial plugs, growth inhibition at 48 hours vs 2% DMSO control, read-out: Concentration at 90% Inhibition Rs
[4] = mycelial plugs, growth inhibition vs 2% DMSO control at 48 hours, read-out: Concentration at 90% Inhibition Rs

Sequence of human (hACC2) (O00763 whole entry): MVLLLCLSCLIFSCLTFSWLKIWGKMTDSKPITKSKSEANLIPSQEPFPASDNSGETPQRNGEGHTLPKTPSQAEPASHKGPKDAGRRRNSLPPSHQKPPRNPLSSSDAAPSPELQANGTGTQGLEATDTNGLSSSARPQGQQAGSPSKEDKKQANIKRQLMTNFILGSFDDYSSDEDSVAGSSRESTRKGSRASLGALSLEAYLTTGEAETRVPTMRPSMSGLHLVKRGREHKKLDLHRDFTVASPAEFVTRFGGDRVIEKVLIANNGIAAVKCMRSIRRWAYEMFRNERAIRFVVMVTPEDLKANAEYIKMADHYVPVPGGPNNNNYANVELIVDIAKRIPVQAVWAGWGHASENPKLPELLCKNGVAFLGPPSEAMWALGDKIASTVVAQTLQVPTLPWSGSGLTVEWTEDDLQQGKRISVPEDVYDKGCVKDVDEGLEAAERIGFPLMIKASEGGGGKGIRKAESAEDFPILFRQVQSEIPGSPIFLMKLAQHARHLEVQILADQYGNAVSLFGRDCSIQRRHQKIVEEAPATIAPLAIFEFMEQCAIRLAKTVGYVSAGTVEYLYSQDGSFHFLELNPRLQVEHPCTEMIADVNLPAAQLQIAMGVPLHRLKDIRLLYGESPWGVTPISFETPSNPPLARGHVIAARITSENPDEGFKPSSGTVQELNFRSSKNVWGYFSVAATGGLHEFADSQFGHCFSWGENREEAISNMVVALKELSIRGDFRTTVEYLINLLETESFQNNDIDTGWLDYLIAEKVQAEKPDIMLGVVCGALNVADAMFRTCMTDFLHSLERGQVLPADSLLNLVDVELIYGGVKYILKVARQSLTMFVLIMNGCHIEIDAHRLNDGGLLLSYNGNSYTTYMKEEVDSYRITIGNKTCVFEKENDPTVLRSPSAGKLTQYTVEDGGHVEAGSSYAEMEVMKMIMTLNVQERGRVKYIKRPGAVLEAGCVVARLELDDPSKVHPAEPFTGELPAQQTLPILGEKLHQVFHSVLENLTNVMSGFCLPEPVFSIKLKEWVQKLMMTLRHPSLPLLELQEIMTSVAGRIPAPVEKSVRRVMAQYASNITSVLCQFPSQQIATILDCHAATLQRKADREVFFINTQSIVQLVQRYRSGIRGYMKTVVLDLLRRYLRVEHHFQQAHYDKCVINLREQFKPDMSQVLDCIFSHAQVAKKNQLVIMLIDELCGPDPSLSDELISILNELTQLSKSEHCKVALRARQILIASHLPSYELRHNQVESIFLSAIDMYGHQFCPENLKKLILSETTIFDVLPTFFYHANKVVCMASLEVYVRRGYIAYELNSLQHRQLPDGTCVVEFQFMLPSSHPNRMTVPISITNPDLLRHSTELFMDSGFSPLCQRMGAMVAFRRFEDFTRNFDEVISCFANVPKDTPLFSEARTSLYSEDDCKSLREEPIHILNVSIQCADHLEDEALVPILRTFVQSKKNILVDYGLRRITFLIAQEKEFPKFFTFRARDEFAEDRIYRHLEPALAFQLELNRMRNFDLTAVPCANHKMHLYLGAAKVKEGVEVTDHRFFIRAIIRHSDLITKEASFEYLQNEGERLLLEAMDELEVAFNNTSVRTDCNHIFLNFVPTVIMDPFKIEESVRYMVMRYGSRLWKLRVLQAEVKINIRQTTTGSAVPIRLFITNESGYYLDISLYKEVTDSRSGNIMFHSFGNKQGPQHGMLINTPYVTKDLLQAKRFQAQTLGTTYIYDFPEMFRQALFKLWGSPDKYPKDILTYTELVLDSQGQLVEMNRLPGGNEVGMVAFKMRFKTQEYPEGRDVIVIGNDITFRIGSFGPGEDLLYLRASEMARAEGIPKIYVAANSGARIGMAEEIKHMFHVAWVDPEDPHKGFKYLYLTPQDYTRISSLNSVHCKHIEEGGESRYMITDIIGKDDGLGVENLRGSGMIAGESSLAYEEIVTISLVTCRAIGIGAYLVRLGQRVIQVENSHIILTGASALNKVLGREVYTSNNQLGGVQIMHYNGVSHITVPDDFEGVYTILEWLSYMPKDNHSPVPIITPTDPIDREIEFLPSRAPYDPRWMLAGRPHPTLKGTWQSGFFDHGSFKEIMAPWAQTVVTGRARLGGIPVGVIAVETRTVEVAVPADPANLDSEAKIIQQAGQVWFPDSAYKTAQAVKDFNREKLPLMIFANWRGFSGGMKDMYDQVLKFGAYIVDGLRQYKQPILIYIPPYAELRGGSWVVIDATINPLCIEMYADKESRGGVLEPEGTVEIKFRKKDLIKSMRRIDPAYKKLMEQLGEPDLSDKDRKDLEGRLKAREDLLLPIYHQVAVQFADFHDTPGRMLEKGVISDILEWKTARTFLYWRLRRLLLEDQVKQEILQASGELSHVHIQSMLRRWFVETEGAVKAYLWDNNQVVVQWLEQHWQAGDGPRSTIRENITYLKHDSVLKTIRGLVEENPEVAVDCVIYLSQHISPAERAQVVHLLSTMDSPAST

Row | Structure (SMILES) | IC90 [1, 3] [µg/mL] | IC90 [1, 4] [µg/mL] | IC50 ([2]; Table 2a) [nM] | IC50 ([2]; Table 2b, additional results) [nM] | IC90 ([1]; read-out: Concentration at 90% Inhibition Rs, Rhizoctonia solani, mycelial plugs, growth inhibition at 48 hours vs 2% DMSO control) [µg/mL] | IC90 ([1]; read-out: Concentration at 90% Inhibition Rs, Rhizoctonia solani, mycelial plugs, growth inhibition vs 2% DMSO control at 48 hours) [µg/mL]
1 | COCCOc1ccc(F)cc1[C@H](Cn1c(=O)n(C(C)(C)C(=O)NC(C)C)c(=O)c2c(C)c(-n3nccn3)sc21)OC(C)C [Compound I-54, (R)-2-(1-(2-(5-fluoro-2-(2-methoxyethoxy)phenyl)-2-isopropoxyethyl)-5-methyl-2,4-dioxo-6-(2H-1,2,3-triazol-2-yl)-1,4-dihydrothieno[2,3-d]pyrimidin-3(2H)-yl)-N-isopropyl-2-methylpropanamide] | 0.4 (≈ 0.634 µM) | 0.4 (≈ 0.634 µM) | 10 to 40 | 10 to 40 | – | –
2 | Cc1c(-n2nccn2)sc2c1c(=O)n(C(C)(C)C(=O)NC(C)C)c(=O)n2C[C@H](OC(C)C)c1cc(F)ccc1OCC1COC1 [Compound I-55, (R)-2-(1-(2-(5-fluoro-2-(oxetan-3-ylmethoxy)phenyl)-2-isopropoxyethyl)-5-methyl-2,4-dioxo-6-(2H-1,2,3-triazol-2-yl)-1,4-dihydrothieno[2,3-d]pyrimidin-3(2H)-yl)-N-isopropyl-2-methylpropanamide] | 0.4 (≈ 0.622 µM) | 0.4 (≈ 0.622 µM) | 10 to 40 | 10 to 40 | – | –
3 | Cc1c(-n2nccn2)sc2c1c(=O)n(C(C)(C)C(=O)NC(C)C)c(=O)n2C[C@H](OC(C)C)c1cc(F)ccc1OCC#N [Compound I-56, (R)-2-(1-(2-(2-(cyanomethoxy)-5-fluorophenyl)-2-isopropoxyethyl)-5-methyl-2,4-dioxo-6-(2H-1,2,3-triazol-2-yl)-1,4-dihydrothieno[2,3-d]pyrimidin-3(2H)-yl)-N-isopropyl-2-methylpropanamide] | – | – | 10 to 40 | 10 to 40 | 2 (≈ 3.27 µM) | 2 (≈ 3.27 µM)
4 | COc1ccc(F)cc1[C@H](Cn1c(=O)n(C(C)(C)C(=O)N2CC=CC2)c(=O)c2c(C)c(-n3nccn3)sc21)OC1CCOCC1 [Compound I-62, (R)-3-(1-(2,5-dihydro-1H-pyrrol-1-yl)-2-methyl-1-oxopro-pan-2-yl)-1-(2-(5-fluoro-2-methoxyphenyl)-2-((tetrahydro-2H-pyran-4-yl)oxy)ethyl)-5-methyl-6-(2H-1,2,3-triazol-2-yl)thieno[2,3-d]pyrimidine-2,4(1H,3H)-dione] | 0.08 (≈ 0.125 µM) | 0.08 (≈ 0.125 µM) | 1 to 5 | 1 to 5 | – | –
5 | COc1ccc(F)cc1[C@H](Cn1c(=O)n(C(C)(C)C(=O)N2CC=CC2)c(=O)c2c(C)c(-n3nccn3)sc21)OC[C@@H](C)O [Compound I-63, 3-(1-(2,5-dihydro-1H-pyrrol-1-yl)-2-methyl-1-oxopropan-2-yl)-1-((R)-2-(5-fluoro-2-methoxyphenyl)-2-((R)-2-hydroxypropoxy)ethyl)-5-methyl-6-(2H-1,2,3-triazol-2-yl)thieno[2,3-d]pyrimidine-2,4(1H,3H)-dione] | 0.4 (≈ 0.653 µM) | 0.4 (≈ 0.653 µM) | 5 to 10 | 5 to 10 | – | –
6 | COCCO[C@@H](Cn1c(=O)n(C(C)C(=O)N2CCCC2)c(=O)c2c(C)c(-n3nccn3)sc21)c1cc(F)ccc1OC (stereo partly drawn) [Compound I-64, 1-((R)-2-(5-fluoro-2-methoxyphenyl)-2-(2-methoxy-ethoxy)ethyl)-5-methyl-3-(1-oxo-1-(pyrrolidin-1-yl)propan-2-yl)-6-(2H-1,2,3-triazol-2-yl)thieno[2,3-d]pyrimidine-2,4(1H,3H)-dione] | 2 (≈ 3.33 µM) | 2 (≈ 3.33 µM) | 10 to 40 | 10 to 40 | – | –
7 | COCCO[C@@H](Cn1c(=O)n([C@H](C)C(=O)N2CCCC2)c(=O)c2c(C)c(-n3nccn3)sc21)c1cc(F)ccc1OC [Compound I-65, 1-((R)-2-(5-fluoro-2-methoxyphenyl)-2-(2-methoxy-ethoxy)ethyl)-5-methyl-3-((R)-1-oxo-1-(pyrrolidin-1-yl)propan-2-yl)-6-(2H-1,2,3-triazol-2-yl)thieno[2,3-d]pyrimidine-2,4(1H,3H)-dione] | 2 (≈ 3.33 µM) | 2 (≈ 3.33 µM) | 10 to 40 | 10 to 40 | – | –
